# Tests used:
# [1] = Food effect (high-fat meal) on exposure; assay type: in vivo, human; details: 150 mg dose of ripretinib
# Experimental: The effect of a high-fat breakfast on ripretinib and Compound A exposure was evaluated. A high fat meal consisted of approximately 150, 250, and 500-600 calories from protein, carbohydrate, and fat, respectively. […] The food effect is not considered to be clinically significant based on exposure-response analysis. Therefore, ripretinib may be taken with or without food at approximately same time each day.
# plasma proteins = assay: Unbound fraction / plasma protein binding; assay type: in vitro ADME, human
# From the text: (§1) Both ripretinib and DP-5439 display high binding to plasma proteins in vitro; therefore, clinical samples were collected to investigate the effect of HI on the unbound fraction (fu) % for both analytes. Distributions of individual mean fu % for both ripretinib and DP-5439 show high variability between participants. The ripretinib mean fu % was ≤0.6% in healthy participants and in participants with hepatic impairment. The DP-5439 fu % was ≤0.5% in healthy participants and 0.2% to 1.4% in participants with hepatic impairment. No clear trend could be established between unbound ripretinib and DP-5439 PK parameters and the degrees of HI.
# [2] = Unbound fraction / plasma protein binding; assay type: in vitro ADME, human; details: human, plasma, oral, 50 mg, healthy participants and participants with hepatic impairment; clinical samples; read-out: mean unbound fraction fu %
# From the text: as §1
# advanced GIST = assay: Randomized, double-blind, placebo-controlled study of ripretinib in advanced GIST (Example 1): efficacy; assay type: in vivo, human
# Experimental: Patients were randomized 2:1 to either 150 mg of ripretinib or placebo once daily. The primary efficacy endpoint is progression-free survival (PFS) as determined by independent radiologic review using modified Response Evaluation Criteria in Solid Tumors (RECIST). Secondary endpoints as determined by independent radiologic review using modified RECIST include Objective Response Rate (ORR), Time to Tumor Progression (TTP) and Overall Survival (OS).
# Results. This study achieved its primary endpoint of improved PFS as determined by blinded independent central radiologic review using modified Response Evaluation Criteria in Solid Tumors (RECIST) version 1.1.
# Patients whose disease progressed during the double blind phase of the study were escalated to 150 mg BID ripretinib, continued at the 150 mg QD dose, or discontinued in an open label-phase of the study.
# [3] = Observed clinical PK after single and multiple doses; assay type: in vivo; details: human, plasma, oral; SD administration, healthy participants
# Experimental: CYP3A4 inactivation parameters and induction parameters were subsequently incorporated in the model to assess the net effect on drug clearance at steady state. Due to the uncertainty in the in vitro CYP3A4 MBI data and CYP3A4 induction data, a series of sensitivity analysis was performed. […] Therefore, the in vitro CYP3A4 interaction data were used in the final model. The simulated profiles of ripretinib and DP-5439 in virtual participants were compared to the clinical data. […] The predicted mean AUC0-12 values for DP-5439 on Day 1 were within 2-fold (majority within 1.5-fold) of the observed values, except for the 250-mg QD dose. The mean AUC0-12 and Cmax values for DP-5439 on Day 15 were under-predicted. […] For example, the reported AUCs for ripretinib and DP-5439 at the 150-mg QD dose level were 1.66 and 5.29, respectively. […] The mechanisms for the accumulation of DP-5439 were unclear.
# CYP2C8 = target: T1, CYP2C8 (Homo sapiens, UniProt P10632); assay: Contribution of CYP enzymes to metabolism, in vitro data; assay type: in vitro ADME; details: base model, based on in vitro data
# T1 sequence (P10632 1-490): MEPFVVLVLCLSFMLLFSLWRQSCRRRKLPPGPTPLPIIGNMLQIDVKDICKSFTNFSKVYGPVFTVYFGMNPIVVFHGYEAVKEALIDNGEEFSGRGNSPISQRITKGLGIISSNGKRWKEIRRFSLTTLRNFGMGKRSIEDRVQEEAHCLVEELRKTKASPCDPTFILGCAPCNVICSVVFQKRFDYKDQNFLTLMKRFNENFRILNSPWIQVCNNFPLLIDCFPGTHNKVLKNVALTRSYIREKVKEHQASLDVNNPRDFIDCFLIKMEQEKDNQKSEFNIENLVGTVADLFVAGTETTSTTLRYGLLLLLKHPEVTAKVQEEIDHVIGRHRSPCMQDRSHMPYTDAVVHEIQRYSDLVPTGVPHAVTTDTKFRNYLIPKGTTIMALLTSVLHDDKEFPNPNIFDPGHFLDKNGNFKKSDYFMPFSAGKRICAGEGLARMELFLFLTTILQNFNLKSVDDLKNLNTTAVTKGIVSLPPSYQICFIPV
# From the text: (§2) A PBPK model that included a mechanistic absorption model was developed.
# CYP3A4 = CYP3A4 (Homo sapiens, UniProt P08684); assay: as above; assay type: in vitro ADME; details: base model, based on in vitro data
# From the text: as §2
# [4] = patients crossed over from placebo to ripretinib
# CYP3A4, sequence (P08684 whole entry): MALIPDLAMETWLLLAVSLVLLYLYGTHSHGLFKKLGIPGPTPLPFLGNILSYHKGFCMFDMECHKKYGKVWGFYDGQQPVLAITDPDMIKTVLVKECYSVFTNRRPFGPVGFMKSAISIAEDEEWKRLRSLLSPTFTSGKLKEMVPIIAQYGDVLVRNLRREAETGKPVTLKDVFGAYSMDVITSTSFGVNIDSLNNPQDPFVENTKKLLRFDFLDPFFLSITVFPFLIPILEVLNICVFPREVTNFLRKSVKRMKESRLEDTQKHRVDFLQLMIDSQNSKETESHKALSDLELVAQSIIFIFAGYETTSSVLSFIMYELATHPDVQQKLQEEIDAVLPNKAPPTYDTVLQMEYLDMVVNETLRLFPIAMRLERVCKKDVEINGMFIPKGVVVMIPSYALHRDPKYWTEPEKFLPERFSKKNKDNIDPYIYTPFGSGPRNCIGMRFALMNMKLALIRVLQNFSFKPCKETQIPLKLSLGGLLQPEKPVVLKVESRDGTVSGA
smiles,measurement,setting,value
CCn1c(=O)c(-c2cc(NC(=O)Nc3ccccc3)c(F)cc2Br)cc2cnc(NC)cc21 [ripretinib],AUC0-24h higher with a high-fat meal,[1],30%
same,Cmax higher with a high-fat meal,[1],22%
same,binding to plasma proteins,plasma proteins; in vitro,high binding
same,"impact of HI (albumin, ALP, ALT, AST, bilirubin changes) on unbound exposure",plasma proteins; visual assessment,did not appear to have an impact
same,fraction unbound,[2],≤ 0.006
same,"benefit over placebo (PFS, OS), primary Exon 11 and Exon 9 mutation","advanced GIST; 150 mg QD, FIG. 17",derive a benefit
same,OS rate at 12 months,advanced GIST; 150 mg once daily,65.4%
same,PFS rate at 6 months,advanced GIST; 150 mg once daily,51%
same,reduction of risk of disease progression or death compared to placebo,advanced GIST; 150 mg once daily,85%
same,median PFS,"advanced GIST; 150 mg once daily, initial ripretinib arm",27.6 weeks
same,median PFS,"advanced GIST; 150 mg once daily, BICR, modified RECIST 1.1, double-blind cut",6.3 months
same,median PFS,"advanced GIST; 150 mg once daily, BICR, modified RECIST 1.1, double-blind cut, listed as Ripretinib","6.3 (4.6, 6.9) months"
same,"PFS compared to placebo in subgroups with Exon 9, 11, 13 or 17 KIT mutations",advanced GIST; FIG. 26A-D,PFS benefit in all assessed patient subgroups
same,Overall survival: number of deaths (%),advanced GIST; double-blind cut,26 (31)
same,"PFS by BICR: deaths, number (%)",advanced GIST; double-blind cut,5 (6)
same,PFS by BICR: number of events (%),advanced GIST; double-blind cut,51 (60)
same,"PFS by BICR: progressive disease, number (%)",advanced GIST; double-blind cut,46 (54)
same,objective/overall response rate by BICR,"advanced GIST; modified RECIST 1.1, double-blind cut",9.4%
same,objective/overall response rate by BICR,"advanced GIST; modified RECIST 1.1, double-blind cut, listed as Ripretinib",9%
same,Median OS (95% CI),advanced GIST; open-label cut,Not Reached
same,Median PFS (95% CI),advanced GIST; open-label cut,"6.3 (4.6, 8.1) months"
same,Overall Response Rate by BICR,advanced GIST; open-label cut,12%
same,Overall survival: number of deaths (%),advanced GIST; open-label cut,38 (45)
same,"PFS by BICR: deaths, number (%)",advanced GIST; open-label cut,6 (7)
same,PFS by BICR: number of events (%),advanced GIST; open-label cut,64 (75)
same,"PFS by BICR: progressive disease, number (%)",advanced GIST; open-label cut,58 (68)
same,median OS,advanced GIST; [4],11.6 months
same,median PFS,advanced GIST; [4],20.0 weeks
same,median OS,"advanced GIST; patients initially randomized to ripretinib, double-blind cut",15.1 months
same,median OS,"advanced GIST; patients initially randomized to ripretinib, double-blind cut, listed as Ripretinib","15 (12, 15) months"
same,half-life,[3],~14 h
same,share of metabolism assigned to CYP2C8,CYP2C8,23%
same,share of metabolism assigned to CYP3A4,CYP3A4,59%
